The values that follow are results of earlier work, collected in patent US20160002278A1, “Pharmaceutical Compositions for Rectal Administration” (CIPLA LIMITED, priority 2013, published 2016).

The conditions of series [1]: oral administration.
The conditions of series [2]: animal study, distributed to other vital organs such as lungs.

With `CCc1c(Cl)c(O)c(Cl)c(O)c1C(=O)O[C@H]1[C@H](O)[C@H](OC)[C@H](OC/C2=C\C=C\C[C@H](O)/C(C)=C/[C@H](CC)[C@@H](O[C@@H]3OC(C)(C)[C@@H](OC(=O)C(C)C)[C@H](O)[C@@H]3O)/C(C)=C/C(C)=C/C[C@@H]([C@@H](C)O)OC2=O)O[C@@H]1C` [Fidaxomicin], in series [1], the adverse effects entry was “hives, difficulty in breathing, swelling of face, lips, tongue or throat”. In addition, the bioavailability (in general, the share of a dose that reaches the circulation, judged against a reference dose that is usually intravenous) (after oral administration) was 1%. Moreover, the “absorption from the gastrointestinal tract” value (following oral (PO) administration) is listed as “minimally absorbed”. For the same compound, in series [2], the “organ findings after oral administration” value was “dark red discoloration of the lungs and lymph nodes”.
